The assay addresses T1, hNK3 receptor (Homo sapiens, UniProt P29371).
T1 construct: expressed in transfected cells; host or cells: CHO cells
T1 sequence (P29371 1-465): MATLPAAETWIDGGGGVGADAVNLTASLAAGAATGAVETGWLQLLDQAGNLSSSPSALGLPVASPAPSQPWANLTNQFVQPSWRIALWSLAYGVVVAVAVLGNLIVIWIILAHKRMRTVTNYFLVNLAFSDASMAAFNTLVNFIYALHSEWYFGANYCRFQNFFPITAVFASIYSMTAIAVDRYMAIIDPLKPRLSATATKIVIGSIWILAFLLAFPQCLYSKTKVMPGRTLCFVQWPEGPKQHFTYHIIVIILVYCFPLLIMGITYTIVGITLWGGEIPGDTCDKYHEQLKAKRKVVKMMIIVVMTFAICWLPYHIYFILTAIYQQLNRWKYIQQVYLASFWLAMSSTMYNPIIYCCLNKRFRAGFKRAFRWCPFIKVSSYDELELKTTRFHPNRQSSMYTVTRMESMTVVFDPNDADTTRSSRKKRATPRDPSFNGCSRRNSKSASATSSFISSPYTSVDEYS
Kind of assay: Radioligand receptor binding inhibitory activity using membrane fraction of hNK3 receptor-expressing CHO cell ([125I]-NKB). The note with it: for inhibition at 10 µM / inhibition at 1 µM: read-out: hNK3 receptor binding inhibitory activity (inhibitory rate (%)). As for the experimental part:
Radioligand Receptor Binding Inhibitory Activity Using Membrane Fraction of hNK3 Receptor-Expressing CHO Cell
hNK3 receptor-expressing CHO cells were cultured in a HAM-F12 medium containing 500 μg/mL Geneticin, 100 U/mL penicillin, 100 μg/mL streptomycin and 10% inactivated serum. The medium was removed before reaching confluence, and the cells were washed with PBS. PBS containing 0.5 mM EDTA was added to detach the cells from the flask and a cell suspension was recovered. The cells were recovered by low speed centrifugation. The cells were suspended in suspending buffer A (50 mM Tris-HCl (pH 7.4), 120 mM NaCl, 5 mM KCl, bacitracin (40 μg/mL), chymostatin (2 μg/mL), PMSF (0.5 mM), 1 mM EDTA), disrupted by a POLYTRON homogenizer (manufactured by KINEMATICA) and centrifuged at 2000×g for 10 min at 4° C. The supernatant was recovered, and ultracentrifuged at 40000×g for 60 min at 4° C. The precipitated fraction was suspended in suspending buffer B (50 mM Tris-HCl (pH 7.4), 3 mM MnCl2, 0.02% BSA, bacitracin (40 μg/mL), chymostatin (2 μg/mL), PMSF (0.5 mM)). The protein concentration of the suspension was measured using Bio-Rad Protein Assay kit and bovine serum albumin (protein preparation), and cryopreserved (at −80° C.) as a membrane fraction preparation of hNK3 receptor-expressing CHO cell until use for a binding assay.
The radioligand receptor binding assay was performed in a 96 well microassay plate format with a final volume of 200 μL. To the 96 well microassay plate were added 50 μL of assay buffer (50 mM Tris-HCl (pH 7.4), 0.02% bovine serum albumin, 2 μg/mL chymostatin, 40 μg/mL bacitracin, 40 μg/mL APMSF, 3 mM MnCl2), the aforementioned cryopreserved membrane fraction preparation suspended in assay buffer (50 μL (300 μg/mL)) and a test compound diluted with 50 μL of assay buffer (containing 2% dimethyl sulfoxide). The reaction was started by the addition of 50 μL of 400 pM [^125I]-NKB NKB (PerkinElmer Life Sciences) solution. For the measurement of the total binding, assay buffer (50 μL) containing 2% dimethyl sulfoxide was added instead of a diluted test compound solution, and for the measurement of non-specific binding, 50 μL of 4 μM unlabeled NKB (manufactured by Peptide Institute, Inc.) solution (diluted with assay buffer containing 2% dimethyl sulfoxide) was added.
After reaction at room temperature for 30 min, using a cell harvester (manufactured by PerkinElmer), the reaction was stopped by rapid filtration on a unifilter plate (GF/C) (manufactured by PerkinElmer), which had been immersed in 0.3% polyethyleneimine for one day, and the membrane fraction was washed 10 times with 50 mM Tris-HCl (pH 7.4) buffer containing 0.02% bovine serum albumin (250 μL). The GF/C filter plate was dried and 20 μL of MicroScinti-O (manufactured by PerkinElmer) was added to each well and the radioactivity was measured by TopCount (manufactured by PerkinElmer).
Specific binding is shown by the value obtained by subtracting non-specific binding from the total binding. The binding inhibitory activity of the test compound is shown by the ratio of the value obtained by subtracting the measured value associated with the addition of the test compound from the total binding, to the value of the specific binding.

SMILES strings stand for the structures.

Turning to `Cc1ccn(-c2ccc(C(=O)N[C@@H]3CCC(F)(F)C[C@@H]3C(=O)N3CCc4c(-c5ncc[nH]5)nc5ccccc5c43)cc2)n1` [Example 1, N-[(1R,2S)-4,4-difluoro-2-{[4-(1H-imidazol-2-yl)-2,3-dihydro-1H-pyrrolo[3,2-c]quinolin-1-yl]carbonyl}cyclohexyl]-4-(3-methyl-1H-pyrazol-1-yl)benzamide], the inhibition at 10 µM (test compound 10^−5 M) was determined as 28.4%. Where the note is “test compound 10^−6 M”, the “hNK3 receptor binding inhibitory activity (inhibitory rate (%))” value turned out to be 9.0%.

Turning to `Br.Cc1ccn(-c2ccc(C(=O)N[C@@H]3CCC(F)(F)C[C@@H]3C(=O)N3CCc4c(-c5ncc[nH]5)nc5ccccc5c43)cc2)n1` [Example 2, N-[(1R,2S)-4,4-difluoro-2-{[4-(1H-imidazol-2-yl)-2,3-dihydro-1H-pyrrolo[3,2-c]quinolin-1-yl]carbonyl}cyclohexyl]-4-(3-methyl-1H-pyrazol-1-yl)benzamide hydrobromide], the “hNK3 receptor binding inhibitory activity (inhibitory rate (%))” value (test compound 10^−5 M) is given as 32.7% and the “hNK3 receptor binding inhibitory activity (inhibitory rate (%))” value (test compound 10^−6 M) is reported as 4.1%.

Regarding `Cc1ccn(-c2ccc(C(=O)N[C@@H]3CCC(F)(F)C[C@@H]3C(=O)N3CCc4c(-c5ncc[nH]5)nc5ccccc5c43)cc2)n1.Cl` [Example 3, N-[(1R,2S)-4,4-difluoro-2-{(4-(1H-imidazol-2-yl)-2,3-dihydro-1H-pyrrolo[3,2-c]quinolin-1-yl]carbonyl}cyclohexyl]-4-(3-methyl-1H-pyrazol-1-yl)benzamide hydrochloride], the “hNK3 receptor binding inhibitory activity (inhibitory rate (%))” value (test compound 10^−5 M) amounted to 30.4% and the “hNK3 receptor binding inhibitory activity (inhibitory rate (%))” value (test compound 10^−6 M) was determined as 9.4%.

On to `Cc1ccn(-c2ccc(C(=O)N[C@@H]3CCC(F)(F)C[C@@H]3C(=O)N3CCc4c(-c5nccn5COC(=O)C(C)(C)C)nc5ccccc5c43)cc2)n1` [Example 4, [2-(1-{[(1S,2R)-5,5-difluoro-2-({[4-(3-methyl-1H-pyrazol-1-yl)phenyl]carbonyl}amino)cyclohexyl]carbonyl)-2,3-dihydro-1H-pyrrolo[3,2-c]quinolin-4-yl)-1H-imidazol-1-yl]methyl 2,2-dimethylpropanoate], for which the inhibition at 10 µM (test compound 10^−5 M) was -7.9%. The inhibition at 1 µM (test compound 10^−6 M) was -6.1%.

As for `Cc1ccn(-c2ccc(C(=O)N[C@@H]3CCC(F)(F)C[C@@H]3C(=O)N3CCc4c(-c5ncc[nH]5)nc5ccc(F)cc5c43)cc2)n1` [Example 5, N-[(1R,2S)-4,4-difluoro-2-{[8-fluoro-4-(1H-imidazol-2-yl)-2,3-dihydro-1H-pyrrolo[3,2-c]quinolin-1-yl]carbonyl}cyclohexyl]-4-(3-methyl-1H-pyrazol-1-yl)benzamide], the inhibition at 10 µM (test compound 10^−5 M) turned out to be 15.2%. Also, the inhibition at 1 µM (test compound 10^−6 M) is -8.1%.

On to `Cc1ccn(-c2ccc(C(=O)N[C@@H]3CCC(F)(F)C[C@@H]3C(=O)N3CCc4c(-c5ccsc5)nc5ccccc5c43)cc2)n1` [Example 7, N-[(1R,2S)-4,4-difluoro-2-{(4-thiophen-3-yl-2,3-dihydro-1H-pyrrolo[3,2-c]quinolin-1-yl)carbonyl]cyclohexyl}-4-(3-methyl-1H-pyrazol-1-yl)benzamide], for which the inhibition at 10 µM (test compound 10^−5 M) came to 35.6%. Also, for the setting “test compound 10^−6 M”, the inhibition at 1 µM stood at 5.9%.

As for `Cc1ccn(-c2ccc(C(=O)N[C@@H]3CCC(F)(F)C[C@@H]3C(=O)N3CCc4c(-c5ccccc5)nc5ccc(F)cc5c43)cc2)n1` [Example 9, N-{(1R,2S)-4,4-difluoro-2-[(8-fluoro-4-phenyl-2,3-dihydro-1H-pyrrolo[3,2-c]quinolin-1-yl)carbonyl]cyclohexyl}-4-(3-methyl-1H-pyrazol-1-yl)benzamide], the inhibition at 10 µM (test compound 10^−5 M) was determined as 53.1%. Where the note is “test compound 10^−6 M”, the inhibition at 1 µM worked out at 27.7%.

Source of the values: patent publication US20110112133A1, “DIHYDRO PYRROLOQUINOLINE DERIVATIVES” (Takeda Pharmaceutical Company Limited, priority 2009, published 2011).
